According to ChEMBL document CHEMBL4507259 (2021):

Experiments:
[1] = target: Phosphatidylinositol 4-phosphate 5-kinase type-1 gamma (Homo sapiens) (UniProt O60331); conditions: Compound concentration 1000.0 nM
[2] = target: Serine/threonine-protein kinase B-raf (Homo sapiens) (UniProt P15056); conditions: Compound concentration 1000.0 nM
[3] = target: T1, Muscarinic acetylcholine receptor M1 (Homo sapiens) (UniProt P11229); assay: M1 (h) CEREP ligand profiling; conditions: filed as antagonist, Compound concentration 10.0 uM
T1 sequence (whole entry): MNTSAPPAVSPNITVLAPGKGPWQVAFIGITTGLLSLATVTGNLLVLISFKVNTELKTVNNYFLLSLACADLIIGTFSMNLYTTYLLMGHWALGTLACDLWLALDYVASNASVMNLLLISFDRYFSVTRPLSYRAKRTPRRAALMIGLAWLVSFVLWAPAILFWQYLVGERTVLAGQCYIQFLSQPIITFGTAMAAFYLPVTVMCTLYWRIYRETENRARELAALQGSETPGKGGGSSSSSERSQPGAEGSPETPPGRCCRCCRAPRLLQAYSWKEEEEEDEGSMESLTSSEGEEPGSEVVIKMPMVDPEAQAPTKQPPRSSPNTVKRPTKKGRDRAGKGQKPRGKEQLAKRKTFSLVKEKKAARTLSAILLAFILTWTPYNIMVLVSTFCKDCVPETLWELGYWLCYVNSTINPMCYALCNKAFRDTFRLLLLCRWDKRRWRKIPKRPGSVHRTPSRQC

[4] = target: cAMP-dependent protein kinase catalytic subunit beta (Homo sapiens) (UniProt P22694); conditions: Compound concentration 1000.0 nM
[5] = target: D(1A) dopamine receptor (Homo sapiens) (UniProt P21728); assay: D1 (h) CEREP ligand profiling; conditions: filed as antagonist, Compound concentration 10.0 uM
[6] = target: Myosin light chain kinase, smooth muscle (Homo sapiens) (UniProt Q15746); conditions: Compound concentration 1000.0 nM
[7] = test system: Mast/stem cell growth factor receptor Kit (Homo sapiens), P10721 [V559D,V654A]; conditions: Compound concentration 1000.0 nM
[8] = target: Mitogen-activated protein kinase 8 (Homo sapiens) (UniProt P45983); conditions: Compound concentration 1000.0 nM
[9] = target: Serine/threonine-protein kinase DCLK2 (Homo sapiens) (UniProt Q8N568); conditions: Compound concentration 1000.0 nM
[10] = target: Serine/threonine-protein kinase SIK3 (Homo sapiens) (UniProt Q9Y2K2); conditions: Compound concentration 1000.0 nM
[11] = test system: Mast/stem cell growth factor receptor Kit (Homo sapiens), P10721 [V559D,T670I]; conditions: Compound concentration 1000.0 nM
[12] = target: Myosin-IIIa (Homo sapiens) (UniProt Q8NEV4); conditions: Compound concentration 1000.0 nM
[13] = target: Proto-oncogene tyrosine-protein kinase Src (Homo sapiens) (UniProt P12931); conditions: Compound concentration 1000.0 nM
[14] = target: Tyrosine-protein kinase Fyn (Homo sapiens) (UniProt P06241); conditions: Compound concentration 1000.0 nM
[15] = target: NUAK family SNF1-like kinase 1 (Homo sapiens) (UniProt O60285); conditions: Compound concentration 1000.0 nM
[16] = target: Serine/threonine-protein kinase Nek1 (Homo sapiens) (UniProt Q96PY6); conditions: Compound concentration 1000.0 nM
[17] = target: D(2) dopamine receptor (Homo sapiens) (UniProt P14416); conditions: Compound concentration 10.0 uM
[18] = target: Serine/threonine-protein kinase WNK4 (Homo sapiens) (UniProt Q96J92); conditions: Compound concentration 1000.0 nM
[19] = target: Serine/threonine-protein kinase PLK2 (Homo sapiens) (UniProt Q9NYY3); conditions: Compound concentration 1000.0 nM
[20] = target: Microtubule-associated serine/threonine-protein kinase 1 (Homo sapiens) (UniProt Q9Y2H9); conditions: Compound concentration 1000.0 nM
[21] = target: Transient receptor potential cation channel subfamily M member 6 (Homo sapiens) (UniProt Q9BX84); conditions: Compound concentration 1000.0 nM
[22] = target: Myotonin-protein kinase (Homo sapiens) (UniProt Q09013); conditions: Compound concentration 1000.0 nM
[23] = target: Homeodomain-interacting protein kinase 4 (Homo sapiens) (UniProt Q8NE63); conditions: Compound concentration 1000.0 nM
[24] = test system: eIF-2-alpha kinase GCN2 (Homo sapiens), Q9P2K8 [S808G]; conditions: Compound concentration 1000.0 nM
[25] = target: Ribosomal protein S6 kinase alpha-3 (Homo sapiens) (UniProt P51812); conditions: Compound concentration 1000.0 nM
[26] = target: AP2-associated protein kinase 1 (Homo sapiens) (UniProt Q2M2I8); conditions: Compound concentration 1000.0 nM
[27] = target: Mitogen-activated protein kinase kinase kinase kinase 5 (Homo sapiens) (UniProt Q9Y4K4); conditions: Compound concentration 1000.0 nM
[28] = target: NT-3 growth factor receptor (Homo sapiens) (UniProt Q16288); conditions: Compound concentration 1000.0 nM
[29] = target: Serine/threonine-protein kinase Nek11 (Homo sapiens) (UniProt Q8NG66); conditions: Compound concentration 1000.0 nM
[30] = target: T2, Alpha-1B adrenergic receptor (Homo sapiens) (UniProt P35368); conditions: Compound concentration 10.0 uM
T2 sequence (whole entry): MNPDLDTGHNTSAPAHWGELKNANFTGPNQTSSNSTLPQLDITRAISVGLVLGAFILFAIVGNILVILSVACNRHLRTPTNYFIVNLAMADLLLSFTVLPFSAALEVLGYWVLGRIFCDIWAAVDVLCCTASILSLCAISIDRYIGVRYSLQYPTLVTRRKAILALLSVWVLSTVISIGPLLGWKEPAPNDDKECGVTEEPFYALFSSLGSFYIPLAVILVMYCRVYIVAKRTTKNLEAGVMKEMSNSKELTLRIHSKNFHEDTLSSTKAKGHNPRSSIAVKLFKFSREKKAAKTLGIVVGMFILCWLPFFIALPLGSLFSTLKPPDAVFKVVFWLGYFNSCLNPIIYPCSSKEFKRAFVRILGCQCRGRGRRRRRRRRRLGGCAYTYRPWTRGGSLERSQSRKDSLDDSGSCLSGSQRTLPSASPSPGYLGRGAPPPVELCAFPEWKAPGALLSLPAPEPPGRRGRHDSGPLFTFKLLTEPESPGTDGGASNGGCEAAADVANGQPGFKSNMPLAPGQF

[31] = target: Serine/threonine-protein kinase tousled-like 2 (Homo sapiens) (UniProt Q86UE8); conditions: Compound concentration 1000.0 nM
[32] = target: Focal adhesion kinase 1 (Homo sapiens) (UniProt Q05397); conditions: Compound concentration 1000.0 nM

Myotonin-protein kinase (Homo sapiens), sequence (Q09013 whole entry): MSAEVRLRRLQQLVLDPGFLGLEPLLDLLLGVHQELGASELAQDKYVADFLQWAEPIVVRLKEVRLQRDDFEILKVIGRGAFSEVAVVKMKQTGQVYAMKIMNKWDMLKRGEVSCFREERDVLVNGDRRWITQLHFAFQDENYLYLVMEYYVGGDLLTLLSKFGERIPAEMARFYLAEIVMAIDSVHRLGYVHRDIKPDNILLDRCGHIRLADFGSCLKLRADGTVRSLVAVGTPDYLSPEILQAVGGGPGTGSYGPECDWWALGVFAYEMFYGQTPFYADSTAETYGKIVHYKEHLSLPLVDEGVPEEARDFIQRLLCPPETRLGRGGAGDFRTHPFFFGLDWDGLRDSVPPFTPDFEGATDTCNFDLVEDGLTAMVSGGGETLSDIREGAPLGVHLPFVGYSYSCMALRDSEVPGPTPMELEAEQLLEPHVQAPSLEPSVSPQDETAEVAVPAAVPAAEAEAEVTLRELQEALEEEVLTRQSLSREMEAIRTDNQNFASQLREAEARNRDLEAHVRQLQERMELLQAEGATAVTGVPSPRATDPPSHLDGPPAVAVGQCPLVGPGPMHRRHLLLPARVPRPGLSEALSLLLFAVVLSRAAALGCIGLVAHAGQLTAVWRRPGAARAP
eIF-2-alpha kinase GCN2 (Homo sapiens), Q9P2K8 [S808G], sequence (Q9P2K8 whole entry S808G): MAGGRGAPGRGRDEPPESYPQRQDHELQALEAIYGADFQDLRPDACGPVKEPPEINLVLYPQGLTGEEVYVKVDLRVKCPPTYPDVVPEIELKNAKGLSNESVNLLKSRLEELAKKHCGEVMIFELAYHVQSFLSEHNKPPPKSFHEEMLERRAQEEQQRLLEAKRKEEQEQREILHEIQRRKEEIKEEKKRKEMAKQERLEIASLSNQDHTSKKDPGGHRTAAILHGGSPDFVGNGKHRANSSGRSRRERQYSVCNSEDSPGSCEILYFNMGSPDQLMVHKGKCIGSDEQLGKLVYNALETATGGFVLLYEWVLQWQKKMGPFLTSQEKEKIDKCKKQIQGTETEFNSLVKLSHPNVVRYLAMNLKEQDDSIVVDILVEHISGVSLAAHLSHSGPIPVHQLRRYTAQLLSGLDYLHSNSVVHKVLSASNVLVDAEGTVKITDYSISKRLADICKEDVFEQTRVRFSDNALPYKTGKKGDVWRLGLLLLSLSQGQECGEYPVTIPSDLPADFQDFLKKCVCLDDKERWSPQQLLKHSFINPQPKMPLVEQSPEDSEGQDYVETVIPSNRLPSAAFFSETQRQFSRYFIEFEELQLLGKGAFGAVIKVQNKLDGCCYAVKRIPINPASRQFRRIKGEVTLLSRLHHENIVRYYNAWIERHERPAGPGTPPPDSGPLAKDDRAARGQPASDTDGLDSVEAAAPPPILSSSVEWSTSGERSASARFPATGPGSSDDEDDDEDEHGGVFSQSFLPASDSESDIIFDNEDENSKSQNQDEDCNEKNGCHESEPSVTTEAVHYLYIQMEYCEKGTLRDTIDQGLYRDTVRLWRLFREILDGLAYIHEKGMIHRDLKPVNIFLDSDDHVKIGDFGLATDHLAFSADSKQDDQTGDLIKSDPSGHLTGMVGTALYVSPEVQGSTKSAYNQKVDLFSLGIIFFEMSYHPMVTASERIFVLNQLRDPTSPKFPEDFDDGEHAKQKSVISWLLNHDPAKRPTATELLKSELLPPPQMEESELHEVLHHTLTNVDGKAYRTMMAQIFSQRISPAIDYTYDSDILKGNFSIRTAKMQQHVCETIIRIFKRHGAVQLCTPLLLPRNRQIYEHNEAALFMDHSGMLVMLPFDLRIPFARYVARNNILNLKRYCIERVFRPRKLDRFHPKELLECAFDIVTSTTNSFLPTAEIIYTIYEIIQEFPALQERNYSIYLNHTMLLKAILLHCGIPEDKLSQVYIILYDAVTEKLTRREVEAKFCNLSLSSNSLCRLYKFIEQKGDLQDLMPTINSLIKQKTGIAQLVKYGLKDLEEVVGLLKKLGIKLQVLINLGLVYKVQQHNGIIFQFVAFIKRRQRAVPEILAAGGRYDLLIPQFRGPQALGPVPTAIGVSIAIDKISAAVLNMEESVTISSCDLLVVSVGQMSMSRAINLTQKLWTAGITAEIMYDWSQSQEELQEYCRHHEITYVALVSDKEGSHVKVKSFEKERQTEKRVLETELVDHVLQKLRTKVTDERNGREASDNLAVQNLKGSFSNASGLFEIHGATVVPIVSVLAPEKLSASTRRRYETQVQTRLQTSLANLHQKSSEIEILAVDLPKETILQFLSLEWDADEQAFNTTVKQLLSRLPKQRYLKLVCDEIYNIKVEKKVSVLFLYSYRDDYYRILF
Homeodomain-interacting protein kinase 4 (Homo sapiens), sequence (Q8NE63 whole entry): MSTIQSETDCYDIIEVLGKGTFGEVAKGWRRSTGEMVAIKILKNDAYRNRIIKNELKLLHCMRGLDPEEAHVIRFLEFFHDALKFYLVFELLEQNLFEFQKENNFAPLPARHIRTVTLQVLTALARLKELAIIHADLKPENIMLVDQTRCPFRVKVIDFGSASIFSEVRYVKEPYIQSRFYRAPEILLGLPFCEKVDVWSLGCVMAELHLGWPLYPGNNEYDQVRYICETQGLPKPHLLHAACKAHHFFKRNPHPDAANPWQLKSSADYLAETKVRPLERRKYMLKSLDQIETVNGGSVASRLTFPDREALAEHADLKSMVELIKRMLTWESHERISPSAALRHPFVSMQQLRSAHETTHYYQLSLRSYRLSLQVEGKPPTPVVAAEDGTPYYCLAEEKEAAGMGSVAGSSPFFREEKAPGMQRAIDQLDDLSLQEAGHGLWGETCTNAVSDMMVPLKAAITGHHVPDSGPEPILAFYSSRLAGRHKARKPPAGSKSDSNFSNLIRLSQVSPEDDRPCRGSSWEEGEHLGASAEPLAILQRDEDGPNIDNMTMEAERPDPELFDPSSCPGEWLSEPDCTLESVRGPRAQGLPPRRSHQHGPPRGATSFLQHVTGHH
NT-3 growth factor receptor (Homo sapiens), sequence (Q16288 32-839 limits assumed): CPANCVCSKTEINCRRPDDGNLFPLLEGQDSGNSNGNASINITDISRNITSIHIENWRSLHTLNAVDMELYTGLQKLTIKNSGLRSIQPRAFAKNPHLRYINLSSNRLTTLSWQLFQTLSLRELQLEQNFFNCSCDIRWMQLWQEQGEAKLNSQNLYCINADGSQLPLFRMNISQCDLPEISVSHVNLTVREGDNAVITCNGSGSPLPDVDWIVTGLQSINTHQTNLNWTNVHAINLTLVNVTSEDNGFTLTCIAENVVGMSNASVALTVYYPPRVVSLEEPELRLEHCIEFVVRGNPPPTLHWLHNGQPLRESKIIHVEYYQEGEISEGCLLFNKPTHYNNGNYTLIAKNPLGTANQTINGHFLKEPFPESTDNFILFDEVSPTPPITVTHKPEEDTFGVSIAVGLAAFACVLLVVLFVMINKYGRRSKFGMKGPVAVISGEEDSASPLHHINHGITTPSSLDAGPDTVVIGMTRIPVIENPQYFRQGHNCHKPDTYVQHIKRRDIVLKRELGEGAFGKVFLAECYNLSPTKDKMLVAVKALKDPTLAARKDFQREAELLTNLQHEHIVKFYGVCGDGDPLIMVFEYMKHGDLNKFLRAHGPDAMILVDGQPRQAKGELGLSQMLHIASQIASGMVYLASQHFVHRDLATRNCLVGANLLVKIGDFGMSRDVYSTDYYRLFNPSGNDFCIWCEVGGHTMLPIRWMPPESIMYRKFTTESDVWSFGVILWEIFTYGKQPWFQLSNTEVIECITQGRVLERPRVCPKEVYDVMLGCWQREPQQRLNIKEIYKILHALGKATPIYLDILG
Serine/threonine-protein kinase B-raf (Homo sapiens), sequence (P15056 whole entry): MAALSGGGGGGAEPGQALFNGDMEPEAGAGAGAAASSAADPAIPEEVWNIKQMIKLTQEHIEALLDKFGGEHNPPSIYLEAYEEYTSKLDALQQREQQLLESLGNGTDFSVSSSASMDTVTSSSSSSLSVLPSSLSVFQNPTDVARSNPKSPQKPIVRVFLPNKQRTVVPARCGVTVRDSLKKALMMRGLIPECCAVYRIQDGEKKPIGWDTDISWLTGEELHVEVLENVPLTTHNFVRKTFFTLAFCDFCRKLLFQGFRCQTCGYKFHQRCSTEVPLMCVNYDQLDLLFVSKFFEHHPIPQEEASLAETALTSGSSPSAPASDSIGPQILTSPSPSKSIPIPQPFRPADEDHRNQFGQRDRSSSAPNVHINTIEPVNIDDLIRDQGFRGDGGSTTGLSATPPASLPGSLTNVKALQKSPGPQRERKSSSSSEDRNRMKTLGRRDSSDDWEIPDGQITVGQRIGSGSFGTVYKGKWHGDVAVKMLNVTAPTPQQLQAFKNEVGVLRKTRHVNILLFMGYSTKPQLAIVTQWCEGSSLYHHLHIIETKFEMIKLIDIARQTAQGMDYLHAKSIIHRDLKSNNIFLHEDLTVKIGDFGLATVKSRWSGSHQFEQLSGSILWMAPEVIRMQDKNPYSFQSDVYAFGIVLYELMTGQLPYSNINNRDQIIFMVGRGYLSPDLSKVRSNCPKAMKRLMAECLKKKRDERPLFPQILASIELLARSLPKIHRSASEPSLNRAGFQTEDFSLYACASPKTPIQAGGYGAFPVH
Tyrosine-protein kinase Fyn (Homo sapiens), sequence (P06241 2-537 limits assumed): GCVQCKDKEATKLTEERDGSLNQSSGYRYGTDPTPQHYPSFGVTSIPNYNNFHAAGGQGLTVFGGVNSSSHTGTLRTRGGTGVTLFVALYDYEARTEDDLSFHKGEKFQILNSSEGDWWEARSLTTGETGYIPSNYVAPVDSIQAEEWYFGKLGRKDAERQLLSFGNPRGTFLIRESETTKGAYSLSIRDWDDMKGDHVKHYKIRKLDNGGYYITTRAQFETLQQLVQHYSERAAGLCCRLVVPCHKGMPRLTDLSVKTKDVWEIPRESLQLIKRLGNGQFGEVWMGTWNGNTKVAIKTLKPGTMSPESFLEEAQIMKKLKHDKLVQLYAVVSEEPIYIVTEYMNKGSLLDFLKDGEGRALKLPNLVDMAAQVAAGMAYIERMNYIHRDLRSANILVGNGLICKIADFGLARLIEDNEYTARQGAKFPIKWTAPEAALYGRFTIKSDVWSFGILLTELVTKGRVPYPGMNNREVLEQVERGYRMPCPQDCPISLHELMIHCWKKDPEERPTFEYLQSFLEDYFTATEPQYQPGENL

CNC(=O)Nc1ccc2c(c1)CC[C@@]21OC(=O)N(CC(=O)N(Cc2ccc(F)cc2)[C@@H](C)C(F)(F)F)C1=O [A-485]
inactive: residual activity [1] 100% | residual activity [2] 93% | inhibition [3] -2% | residual activity [4] 100% | inhibition [5] -4% | residual activity [6] 66% | residual activity [7] 90% | residual activity [8] 65% | residual activity [9] 70% | residual activity [10] 94% | residual activity [11] 93% | residual activity [12] 100% | residual activity [13] 91% | residual activity [14] 100% | residual activity [15] 94% | residual activity [16] 100% | inhibition [17] 15.5% | residual activity [18] 73% | residual activity [19] 91% | residual activity [20] 94% | residual activity [21] 100% | residual activity [22] 100% | residual activity [23] 97% | residual activity [24] 92% | residual activity [25] 88% | residual activity [26] 100% | residual activity [27] 88% | residual activity [28] 84% | residual activity [29] 91% | inhibition [30] 1.93% | residual activity [31] 100% | residual activity [32] 94%

CNC(=O)Nc1ccc2c(c1)[C@@]1(CC2)OC(=O)N(CC(=O)N(Cc2ccc(F)cc2)[C@@H](C)C(F)(F)F)C1=O [A-486]
inactive: residual activity [1] 100% | residual activity [2] 100% | inhibition [3] -8% | residual activity [4] 100% | inhibition [5] -5% | residual activity [6] 88% | residual activity [7] 83% | residual activity [8] 71% | residual activity [9] 89% | residual activity [10] 100% | residual activity [11] 100% | residual activity [12] 100% | residual activity [13] 90% | residual activity [14] 79% | residual activity [15] 88% | residual activity [16] 100% | inhibition [17] -8.75% | residual activity [18] 100% | residual activity [19] 92% | residual activity [20] 85% | residual activity [21] 98% | residual activity [22] 92% | residual activity [23] 100% | residual activity [24] 100% | residual activity [25] 75% | residual activity [26] 100% | residual activity [27] 100% | residual activity [28] 82% | residual activity [29] 84% | inhibition [30] -1.33% | residual activity [31] 100% | residual activity [32] 100%
